Source: patent publication US20100016209A1, “Methods of Reducing Side Effects in Cancer Therapy” (priority 2005, published 2010)

Assays:
patients' immune cells = experiment: Clinical (C): MEK therapy in a group of 19 cancer patients, analysis of patients' immune cells (FACS Calibur); type: in vivo, human; conditions: for Total NK (CD16+CD56) Natural killer cells, Cells/μl / Total T Cells, Cells/μl / CD4/CD3(CD8) / Total NK (CD16+CD56) Natural killer cells, in percent of total / Total T Cells, in percent of total / Total Lymphocytes (T+B+NK), in percent of total: average of 19 patients; for Total NK (CD16+CD56) Natural killer cells, Cells/μl / Total T Cells, in percent of total: before MEK 61; for Total T Cells, Cells/μl: before MEK 367; for CD4/CD3(CD8): normal 0.9-3.6, before MEK 0.61; for Total NK (CD16+CD56) Natural killer cells, in percent of total: normal 5.6-30.9, before MEK 16; for Total T Cells, in percent of total: normal range 59.5-84.6; for Total Lymphocytes (T+B+NK), in percent of total: normal range 95.0-105.0, before MEK 87
Experimental: (C) Therapy in group of patients: (1) Total patient number: 19 (2) Cancer category: colon cancer—8; ovary cancer—5; lung cancer—4; salivary gland cancer—1; stomach cancer—1. 12 patients were given MEK 3 weeks after chemotherapy; the other 7 patients were not treated with chemotherapy. (3) Schedule of MEK administration: First week—10˜30 μg/kg, daily IV (total 7 administrations per week); Second week—20˜40 μg/kg, ever other day IV (total 3 administrations per week); Third week—30˜50 μg/kg, once every three days, IV (total 2 administrations per week). (4) Thereafter, one administration each month, 100˜130 μg/kg for 6 months. (5) Observation Indicator: analysis of patients' immune cells. (6) Equipment used: Cytometer—FACS Calibur; Software—Simul Set V3.1. (7) Results (in average values):
In the above data, “after MEK” refers to after the end of MEK treatment.

[1] = test system: patient with metastasized cancer of the "small saliva gland"
Experimental: (A) A patient of was a physician in the radiation department. They were diagnosed to have cancer of the “small saliva gland” in 1996. After radiation therapy, the tumor was removed by surgery. In 2001 it was discovered that the tumor had metastasized to their left lung and they went through a second surgery in the lung. In December of 2004, the metastasis extended into the chest, diaphragm and bone and multiple sites in the lung. They were treated with regional radiation and “immuno-therapy”. Starting in the middle of December, they were given MEK intravenously (IV) at a dose of 30 μg/kg bodyweight three times per week for one month. In the next month, they were given one administration of MEK each week at 40 μg/kg. Thereafter, one injection was done for each month at 120 μg/kg for the next 5 months.

[2] = test system: white blood cells of kidney cancer patient; experiment: Clinical case (B): chemotherapy with a platinum compound and MEK, white blood cells analyzed by cell sorter; type: in vivo, human; conditions: A person; for Total T (CD3+), Percent: kidney cancer, normal 59.4-84.6; for Total T (CD3+), Percent / T Helper (CD3+, CD4+), Cell Number/μl / T Suppressor (CD3+, CD8+), Cell Number/μl / Total B (CD19+), Cell Number/μl / Total NK (CD16+/CD56+), Cell Number/μl / Total T (CD3+), Cell Number/μl / Ratio T Helper Cells/ CD3, CD4/CD3, CD8 / Total NK (CD16+/CD56+), Percent / Total B (CD19+), Percent / T Suppressor (CD3+, CD8+), Percent / T Helper (CD3+, CD4+), Percent / Lymphocytes T + B + NK, Percent: platinum compound + MEK; for Ratio T Helper Cells/ CD3, CD4/CD3, CD8: normal 0.9-3.6; for Total NK (CD16+/CD56+), Percent: normal 5.6-40.9; for Total B (CD19+), Percent: normal 6.4-22.6; for T Suppressor (CD3+, CD8+), Percent: normal 11.1-38.3; for T Helper (CD3+, CD4+), Percent: normal 28.5-60.5; for Lymphocytes T + B + NK, Percent: normal 95.0-105.0
Experimental: (B) A patient was diagnosed with a kidney cancer and was treated with chemotherapy with a platinum compound and MEK for about two months (July and August 2005). […] a person's white blood cells after analyzed by the cell sorter are presented as follows: […]

Substance: Methionine enkephalin [MEK]
- side effects among the patients treated (patients' immune cells; MEK as supplemental agent with chemo and/or radiation therapies): helped to eliminate or reduce the extent of many side effects
- Total NK (CD16+CD56) Natural killer cells, Cells/μl (patients' immune cells; 1 month after MEK): 177 Cells/μl
- Total T Cells, Cells/μl (patients' immune cells; 1 month after MEK): 655 Cells/μl
- CD4/CD3(CD8) (patients' immune cells; 1 month after MEK): 0
- Total NK (CD16+CD56) Natural killer cells, in percent of total (patients' immune cells; 1 month after MEK): 22% of total
- Total T Cells, in percent of total (patients' immune cells; 1 month after MEK): 60% of total
- Total Lymphocytes (T+B+NK), in percent of total (patients' immune cells; 1 month after MEK): 102% of total
- Total NK (CD16+CD56) Natural killer cells, Cells/μl (patients' immune cells; 2 months after MEK): 189 Cells/μl
- Total T Cells, Cells/μl (patients' immune cells; 2 months after MEK): 587 Cells/μl
- CD4/CD3(CD8) (patients' immune cells; 2 months after MEK): 1.62
- Total NK (CD16+CD56) Natural killer cells, in percent of total (patients' immune cells; 2 months after MEK): 21% of total
- Total T Cells, in percent of total (patients' immune cells; 2 months after MEK): 66% of total
- Total Lymphocytes (T+B+NK), in percent of total (patients' immune cells; 2 months after MEK): 100% of total
- Total NK (CD16+CD56) Natural killer cells, Cells/μl (patients' immune cells; 3 months after MEK): 306 Cells/μl
- Total T Cells, Cells/μl (patients' immune cells; 3 months after MEK): 539 Cells/μl
- CD4/CD3(CD8) (patients' immune cells; 3 months after MEK): 1.51
- Total NK (CD16+CD56) Natural killer cells, in percent of total (patients' immune cells; 3 months after MEK): 29% of total
- Total T Cells, in percent of total (patients' immune cells; 3 months after MEK): 67% of total
- Total Lymphocytes (T+B+NK), in percent of total (patients' immune cells; 3 months after MEK): 104% of total
- Total NK (CD16+CD56) Natural killer cells, Cells/μl (patients' immune cells; 4 months after MEK): 349 Cells/μl
- Total T Cells, Cells/μl (patients' immune cells; 4 months after MEK): 694 Cells/μl
- CD4/CD3(CD8) (patients' immune cells; 4 months after MEK): 1.53
- Total NK (CD16+CD56) Natural killer cells, in percent of total (patients' immune cells; 4 months after MEK): 26% of total
- Total T Cells, in percent of total (patients' immune cells; 4 months after MEK): 79% of total
- Total Lymphocytes (T+B+NK), in percent of total (patients' immune cells; 4 months after MEK): 103% of total
- Total NK (CD16+CD56) Natural killer cells, Cells/μl (patients' immune cells; 5 months after MEK): 368 Cells/μl
- Total T Cells, Cells/μl (patients' immune cells; 5 months after MEK): 637 Cells/μl
- CD4/CD3(CD8) (patients' immune cells; 5 months after MEK): 1.80
- Total NK (CD16+CD56) Natural killer cells, in percent of total (patients' immune cells; 5 months after MEK): 25% of total
- Total T Cells, in percent of total (patients' immune cells; 5 months after MEK): 73% of total
- Total Lymphocytes (T+B+NK), in percent of total (patients' immune cells; 5 months after MEK): 102% of total
- Total NK (CD16+CD56) Natural killer cells, Cells/μl (patients' immune cells; 6 months after MEK): 359 Cells/μl
- Total T Cells, Cells/μl (patients' immune cells; 6 months after MEK): 568 Cells/μl
- CD4/CD3(CD8) (patients' immune cells; 6 months after MEK): 1.61
- Total NK (CD16+CD56) Natural killer cells, in percent of total (patients' immune cells; 6 months after MEK): 27% of total
- Total T Cells, in percent of total (patients' immune cells; 6 months after MEK): 80% of total
- Total Lymphocytes (T+B+NK), in percent of total (patients' immune cells; 6 months after MEK): 103% of total
- CD4/CD3(CD8), NK (CD16+CD56), and total T cells (patients' immune cells; cancer patients, MEK in conjunction with chemo and/or radiation therapies, after one month of MEK administration): either were maintained normally or increased
- progress of the tumor ([1]; CT and MRI examination): slowed and partially disappeared
- appetite and sleep ([1]; after the therapy): improved
- blood pressure, pulse and liver and stomach functions ([1]; after the therapy): normal
- influenza infection ([1]; during the influenza epidemic, hospital ward): not infected
- side effects in the GI, respiratory, skin, and peripheral circulation systems ([1]; during therapy with radiation, chemo, and MEK): no side effects
- white blood cell counts and lymphocytes ([1]; during therapy with radiation, chemo, and MEK, MEK IV 30-120 μg/kg): decreased to some extent
- CD3/CD4 sub-group of T lymphocytes ([1]; monitored monthly): increased
- CD3/CD8 and total CD3 subgroups ([1]; monitored monthly): decreased
- total numbers of NK cells ([1]; monitored monthly): increased
- Total T (CD3+), Percent ([2]; Aug 12): 74%
- Total T (CD3+), Percent ([2]; Jul 14): 70%
- T Helper (CD3+, CD4+), Cell Number/μl ([2]; Aug 12): 447 Cell Number/μl
- T Suppressor (CD3+, CD8+), Cell Number/μl ([2]; Aug 12): 931 Cell Number/μl
- Total B (CD19+), Cell Number/μl ([2]; Aug 12): 74 Cell Number/μl
- Total NK (CD16+/CD56+), Cell Number/μl ([2]; Aug 12): 447 Cell Number/μl
- Total T (CD3+), Cell Number/μl ([2]; Aug 12): 1368 Cell Number/μl
- Ratio T Helper Cells/ CD3, CD4/CD3, CD8 ([2]; Aug 12): 0.48
- Total NK (CD16+/CD56+), Percent ([2]; Aug 12): 24%
- Total B (CD19+), Percent ([2]; Aug 12): 4%
- T Suppressor (CD3+, CD8+), Percent ([2]; Aug 12): 50%
- T Helper (CD3+, CD4+), Percent ([2]; Aug 12): 24%
- Lymphocytes T + B + NK, Percent ([2]; Aug 12): 102%
- T Helper (CD3+, CD4+), Cell Number/μl ([2]; Jul 14): 569 Cell Number/μl
- T Suppressor (CD3+, CD8+), Cell Number/μl ([2]; Jul 14): 1274 Cell Number/μl
- Total B (CD19+), Cell Number/μl ([2]; Jul 14): 54 Cell Number/μl
- Total NK (CD16+/CD56+), Cell Number/μl ([2]; Jul 14): 759 Cell Number/μl
- Total T (CD3+), Cell Number/μl ([2]; Jul 14): 1897 Cell Number/μl
- Ratio T Helper Cells/ CD3, CD4/CD3, CD8 ([2]; Jul 14): 0.45
- Total NK (CD16+/CD56+), Percent ([2]; Jul 14): 28%
- Total B (CD19+), Percent ([2]; Jul 14): 2%
- T Suppressor (CD3+, CD8+), Percent ([2]; Jul 14): 47%
- T Helper (CD3+, CD4+), Percent ([2]; Jul 14): 21%
- Lymphocytes T + B + NK, Percent ([2]; Jul 14): 100%
- Numbers of T cell sub-types ([2]; platinum compound and MEK for about two months): did not decrease but increased instead
